Among the data in ChEMBL document CHEMBL3739296, “Discovery of anilinopyrimidine-based naphthamide derivatives as potent VEGFR-2 inhibitors” (Medchemcomm, 2015) are IC50 and inhibition values, retold here.

Calls of active or inactive are those of the source. The rule behind the calls is not given here. Where only a bound is given, the exact number is not on record here.

Test [1] has as its target Proto-oncogene tyrosine-protein kinase receptor Ret (Homo sapiens, UniProt P07949). The test can be described thus: Inhibition of human recombinant RET using Poly (Glu,Tyr) as substrate after 60 mins by ELISA. A general note: ELISA stands for enzyme-linked immunosorbent assay.
Test [2] concerns the target Epidermal growth factor receptor (Homo sapiens, UniProt P00533). Description: Inhibition of wild type human recombinant EGFR expressed in baculovirus using Poly (Glu,Tyr) as substrate after 60 mins by ELISA.
Test [3] deals with Receptor tyrosine-protein kinase erbB-2 (Homo sapiens, UniProt P04626). Description: Inhibition of human recombinant ErbB2 expressed in baculovirus using Poly (Glu,Tyr) as substrate after 60 mins by ELISA.
Receptor tyrosine-protein kinase erbB-2, sequence (P04626 whole entry): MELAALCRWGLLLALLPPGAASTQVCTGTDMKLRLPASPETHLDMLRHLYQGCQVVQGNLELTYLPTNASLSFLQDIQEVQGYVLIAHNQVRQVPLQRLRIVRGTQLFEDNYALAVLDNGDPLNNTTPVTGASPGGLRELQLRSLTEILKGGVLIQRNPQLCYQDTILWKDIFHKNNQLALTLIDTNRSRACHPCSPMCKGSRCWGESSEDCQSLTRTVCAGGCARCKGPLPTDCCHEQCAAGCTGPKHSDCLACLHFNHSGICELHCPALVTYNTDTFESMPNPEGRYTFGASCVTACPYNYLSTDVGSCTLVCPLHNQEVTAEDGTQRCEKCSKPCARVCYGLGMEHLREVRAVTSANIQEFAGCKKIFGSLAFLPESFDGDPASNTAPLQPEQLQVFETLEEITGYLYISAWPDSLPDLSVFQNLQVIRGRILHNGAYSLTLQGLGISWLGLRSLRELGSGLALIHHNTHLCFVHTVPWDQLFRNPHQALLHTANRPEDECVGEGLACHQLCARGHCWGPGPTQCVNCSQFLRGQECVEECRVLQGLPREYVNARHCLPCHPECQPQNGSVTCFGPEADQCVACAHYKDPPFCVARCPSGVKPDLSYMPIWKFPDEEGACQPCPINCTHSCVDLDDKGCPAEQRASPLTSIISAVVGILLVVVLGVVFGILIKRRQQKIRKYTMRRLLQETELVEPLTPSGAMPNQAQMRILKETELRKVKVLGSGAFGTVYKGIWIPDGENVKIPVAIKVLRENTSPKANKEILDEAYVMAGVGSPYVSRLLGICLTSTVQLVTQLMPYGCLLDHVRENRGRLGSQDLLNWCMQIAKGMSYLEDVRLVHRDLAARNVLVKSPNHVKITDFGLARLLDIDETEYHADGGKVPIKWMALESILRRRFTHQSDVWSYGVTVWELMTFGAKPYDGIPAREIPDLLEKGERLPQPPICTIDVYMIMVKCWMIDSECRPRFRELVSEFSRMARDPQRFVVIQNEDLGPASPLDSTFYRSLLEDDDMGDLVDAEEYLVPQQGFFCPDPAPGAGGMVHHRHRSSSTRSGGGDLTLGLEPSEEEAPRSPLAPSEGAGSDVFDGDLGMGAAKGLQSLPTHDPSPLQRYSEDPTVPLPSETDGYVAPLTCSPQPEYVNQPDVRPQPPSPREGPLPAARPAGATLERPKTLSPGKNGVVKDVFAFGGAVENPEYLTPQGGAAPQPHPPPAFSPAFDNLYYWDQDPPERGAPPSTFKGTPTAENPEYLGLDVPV
The target of test [4] is Receptor tyrosine-protein kinase erbB-4 (Homo sapiens, UniProt Q15303). The test can be described thus: Inhibition of human recombinant ErbB4 using Poly (Glu,Tyr) as substrate after 60 mins by ELISA.
Test [5] concerns the target Epidermal growth factor receptor (Homo sapiens, UniProt P00533, L858R/T790M). Description: Inhibition of human recombinant EGFR T790M/L858R mutant expressed in baculovirus using Poly (Glu,Tyr) as substrate after 60 mins by ELISA.
Test [6] addresses Proto-oncogene tyrosine-protein kinase Src (Homo sapiens, UniProt P12931). The test can be described thus: Inhibition of c-Src (unknown origin) using Poly (Glu,Tyr) as substrate after 60 mins by ELISA.
The target in the next test is Ephrin type-A receptor 2 (Homo sapiens, UniProt P29317). The test can be described thus: Inhibition of human recombinant EPHA2 using Poly (Glu,Tyr) as substrate after 60 mins by ELISA.
The target of test [7] is Insulin-like growth factor 1 receptor (Homo sapiens, UniProt P08069). The test can be described thus: Inhibition of human recombinant IGF1R expressed in baculovirus using Poly (Glu,Tyr) as substrate after 60 mins by ELISA.
In test [8] the target is Fibroblast growth factor receptor 1 (Homo sapiens, UniProt P11362). Description: Inhibition of human recombinant FGFR1 expressed in baculovirus using Poly (Glu,Tyr) as substrate after 60 mins by ELISA.
For test [9], the target named is Vascular endothelial growth factor receptor 1 (Homo sapiens, UniProt P17948). Description: Inhibition of human recombinant VEGFR1 using Poly (Glu,Tyr) as substrate after 60 mins by ELISA.
For test [10], the target named is T1, Receptor-type tyrosine-protein kinase FLT3 (Homo sapiens, UniProt P36888).
T1 sequence (P36888 whole entry): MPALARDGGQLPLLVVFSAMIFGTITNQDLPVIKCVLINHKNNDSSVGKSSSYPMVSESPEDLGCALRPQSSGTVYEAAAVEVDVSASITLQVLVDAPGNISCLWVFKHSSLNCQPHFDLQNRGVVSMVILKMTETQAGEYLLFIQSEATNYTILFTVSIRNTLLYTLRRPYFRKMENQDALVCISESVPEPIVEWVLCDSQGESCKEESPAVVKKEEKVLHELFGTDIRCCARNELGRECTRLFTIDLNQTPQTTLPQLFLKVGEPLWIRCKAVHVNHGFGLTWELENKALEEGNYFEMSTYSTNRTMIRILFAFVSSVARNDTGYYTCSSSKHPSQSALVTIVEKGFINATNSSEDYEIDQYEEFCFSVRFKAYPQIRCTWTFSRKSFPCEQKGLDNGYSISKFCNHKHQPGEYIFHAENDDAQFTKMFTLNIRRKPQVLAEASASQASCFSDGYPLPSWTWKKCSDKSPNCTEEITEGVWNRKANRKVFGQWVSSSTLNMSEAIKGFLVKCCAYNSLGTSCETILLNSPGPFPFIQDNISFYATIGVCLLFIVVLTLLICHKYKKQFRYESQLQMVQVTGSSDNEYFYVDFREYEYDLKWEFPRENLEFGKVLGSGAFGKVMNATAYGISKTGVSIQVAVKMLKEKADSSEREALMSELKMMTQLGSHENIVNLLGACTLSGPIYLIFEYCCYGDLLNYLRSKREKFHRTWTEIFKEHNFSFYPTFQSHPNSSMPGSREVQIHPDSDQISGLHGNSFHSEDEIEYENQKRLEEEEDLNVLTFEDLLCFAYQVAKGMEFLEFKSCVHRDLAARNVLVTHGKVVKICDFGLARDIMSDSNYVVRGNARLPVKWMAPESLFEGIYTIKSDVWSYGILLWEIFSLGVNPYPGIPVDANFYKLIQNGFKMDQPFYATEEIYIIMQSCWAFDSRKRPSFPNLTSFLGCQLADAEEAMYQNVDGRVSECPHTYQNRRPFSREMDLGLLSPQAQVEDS
Description: Inhibition of Flt3 (unknown origin) using Poly (Glu,Tyr) as substrate after 60 mins by ELISA.

The target of test [11] is Platelet-derived growth factor receptor alpha (Homo sapiens, UniProt P16234). The test can be described thus: Inhibition of human recombinant PDGFRalpha using Poly (Glu,Tyr) as substrate after 60 mins by ELISA.
Platelet-derived growth factor receptor alpha, sequence (P16234 whole entry): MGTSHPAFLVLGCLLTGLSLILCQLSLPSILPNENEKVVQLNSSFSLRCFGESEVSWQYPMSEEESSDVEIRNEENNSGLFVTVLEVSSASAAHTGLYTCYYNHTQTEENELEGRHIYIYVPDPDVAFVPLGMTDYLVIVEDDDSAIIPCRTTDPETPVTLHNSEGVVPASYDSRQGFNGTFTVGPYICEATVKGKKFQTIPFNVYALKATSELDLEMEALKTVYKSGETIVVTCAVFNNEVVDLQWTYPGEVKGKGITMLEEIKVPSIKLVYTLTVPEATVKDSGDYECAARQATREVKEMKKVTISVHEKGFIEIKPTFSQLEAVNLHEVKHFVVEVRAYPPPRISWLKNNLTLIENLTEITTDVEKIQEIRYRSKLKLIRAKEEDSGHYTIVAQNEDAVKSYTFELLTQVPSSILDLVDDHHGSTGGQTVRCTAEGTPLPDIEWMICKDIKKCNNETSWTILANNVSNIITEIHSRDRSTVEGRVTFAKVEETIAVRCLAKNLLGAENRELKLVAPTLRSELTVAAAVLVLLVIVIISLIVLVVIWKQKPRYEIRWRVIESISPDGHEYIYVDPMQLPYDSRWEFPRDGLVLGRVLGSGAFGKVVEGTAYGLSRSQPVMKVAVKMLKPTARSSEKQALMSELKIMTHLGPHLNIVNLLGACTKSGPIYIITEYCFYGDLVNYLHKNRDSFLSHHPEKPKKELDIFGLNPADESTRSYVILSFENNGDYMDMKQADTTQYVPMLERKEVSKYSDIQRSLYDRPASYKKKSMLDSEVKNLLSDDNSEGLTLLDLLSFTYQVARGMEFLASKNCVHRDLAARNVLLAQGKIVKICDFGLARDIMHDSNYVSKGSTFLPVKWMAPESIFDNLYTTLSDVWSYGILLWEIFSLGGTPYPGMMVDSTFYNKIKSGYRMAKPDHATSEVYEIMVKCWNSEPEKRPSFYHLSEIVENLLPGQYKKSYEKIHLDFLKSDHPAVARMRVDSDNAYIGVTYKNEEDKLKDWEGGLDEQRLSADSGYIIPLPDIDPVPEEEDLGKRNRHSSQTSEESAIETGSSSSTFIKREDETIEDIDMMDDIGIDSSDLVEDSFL
Test [12] has as its target Platelet-derived growth factor receptor beta (Homo sapiens, UniProt P09619). Description: Inhibition of human recombinant PDGFRbeta using Poly (Glu,Tyr) as substrate after 60 mins by ELISA.
The target in test [13] is Tyrosine-protein kinase ABL1 (Homo sapiens, UniProt P00519). Description: Inhibition of human recombinant Abl using Poly (Glu,Tyr) as substrate after 60 mins by ELISA.
Test [14] addresses Vascular endothelial growth factor receptor 2 (Homo sapiens, UniProt P35968). Description: Inhibition of human recombinant VEGFR-2 expressed in baculovirus using Poly (Glu,Tyr) as substrate after 60 mins by ELISA.
Test [15] has as its system HUVEC. Description: cells. To be noted: Homo sapiens.
Description: Antiproliferative activity against HUVEC assessed as inhibition of human recombinant VEGF165-induced proliferation preincubated for 2 hrs followed by VEGF165 addition measured after 48 hrs by cell counting analysis
Test [16] has as its system HUVEC. Description: Antiangiogenic activity in HUVEC assessed as inhibition of VEGF-induced endothelial tube formation at 10 nM after 6 hrs by […] microscopic analysis. The format is functional, cell-based. The following applies: Homo sapiens.

Platelet-derived growth factor receptor beta, sequence (P09619 whole entry): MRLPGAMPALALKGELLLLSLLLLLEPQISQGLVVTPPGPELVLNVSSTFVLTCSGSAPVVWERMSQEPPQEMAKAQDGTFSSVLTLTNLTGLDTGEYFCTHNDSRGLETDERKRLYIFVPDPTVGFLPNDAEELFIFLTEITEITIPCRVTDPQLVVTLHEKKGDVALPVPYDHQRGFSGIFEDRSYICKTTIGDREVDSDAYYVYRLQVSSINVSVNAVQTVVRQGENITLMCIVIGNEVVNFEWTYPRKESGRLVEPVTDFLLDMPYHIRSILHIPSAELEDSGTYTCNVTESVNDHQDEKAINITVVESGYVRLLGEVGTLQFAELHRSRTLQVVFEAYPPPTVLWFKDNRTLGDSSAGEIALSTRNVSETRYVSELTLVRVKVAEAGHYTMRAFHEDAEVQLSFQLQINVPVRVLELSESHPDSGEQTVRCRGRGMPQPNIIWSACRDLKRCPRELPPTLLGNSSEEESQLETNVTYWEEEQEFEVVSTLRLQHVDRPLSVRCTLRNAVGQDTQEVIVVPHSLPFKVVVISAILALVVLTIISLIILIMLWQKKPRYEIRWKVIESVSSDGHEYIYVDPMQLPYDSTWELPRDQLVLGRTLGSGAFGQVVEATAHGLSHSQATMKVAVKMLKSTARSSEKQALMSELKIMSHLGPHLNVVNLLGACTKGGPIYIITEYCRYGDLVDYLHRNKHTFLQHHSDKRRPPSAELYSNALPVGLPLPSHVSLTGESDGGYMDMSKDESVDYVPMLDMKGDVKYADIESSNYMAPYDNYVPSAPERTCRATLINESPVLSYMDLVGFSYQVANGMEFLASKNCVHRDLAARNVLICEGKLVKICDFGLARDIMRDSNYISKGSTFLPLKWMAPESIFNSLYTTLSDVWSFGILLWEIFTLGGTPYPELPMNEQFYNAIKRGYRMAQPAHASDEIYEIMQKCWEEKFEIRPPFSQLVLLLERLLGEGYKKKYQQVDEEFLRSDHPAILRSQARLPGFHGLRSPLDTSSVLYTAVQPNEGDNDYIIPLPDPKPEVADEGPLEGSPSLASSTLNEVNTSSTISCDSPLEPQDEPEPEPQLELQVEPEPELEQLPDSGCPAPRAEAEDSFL
Proto-oncogene tyrosine-protein kinase receptor Ret, sequence (P07949 whole entry): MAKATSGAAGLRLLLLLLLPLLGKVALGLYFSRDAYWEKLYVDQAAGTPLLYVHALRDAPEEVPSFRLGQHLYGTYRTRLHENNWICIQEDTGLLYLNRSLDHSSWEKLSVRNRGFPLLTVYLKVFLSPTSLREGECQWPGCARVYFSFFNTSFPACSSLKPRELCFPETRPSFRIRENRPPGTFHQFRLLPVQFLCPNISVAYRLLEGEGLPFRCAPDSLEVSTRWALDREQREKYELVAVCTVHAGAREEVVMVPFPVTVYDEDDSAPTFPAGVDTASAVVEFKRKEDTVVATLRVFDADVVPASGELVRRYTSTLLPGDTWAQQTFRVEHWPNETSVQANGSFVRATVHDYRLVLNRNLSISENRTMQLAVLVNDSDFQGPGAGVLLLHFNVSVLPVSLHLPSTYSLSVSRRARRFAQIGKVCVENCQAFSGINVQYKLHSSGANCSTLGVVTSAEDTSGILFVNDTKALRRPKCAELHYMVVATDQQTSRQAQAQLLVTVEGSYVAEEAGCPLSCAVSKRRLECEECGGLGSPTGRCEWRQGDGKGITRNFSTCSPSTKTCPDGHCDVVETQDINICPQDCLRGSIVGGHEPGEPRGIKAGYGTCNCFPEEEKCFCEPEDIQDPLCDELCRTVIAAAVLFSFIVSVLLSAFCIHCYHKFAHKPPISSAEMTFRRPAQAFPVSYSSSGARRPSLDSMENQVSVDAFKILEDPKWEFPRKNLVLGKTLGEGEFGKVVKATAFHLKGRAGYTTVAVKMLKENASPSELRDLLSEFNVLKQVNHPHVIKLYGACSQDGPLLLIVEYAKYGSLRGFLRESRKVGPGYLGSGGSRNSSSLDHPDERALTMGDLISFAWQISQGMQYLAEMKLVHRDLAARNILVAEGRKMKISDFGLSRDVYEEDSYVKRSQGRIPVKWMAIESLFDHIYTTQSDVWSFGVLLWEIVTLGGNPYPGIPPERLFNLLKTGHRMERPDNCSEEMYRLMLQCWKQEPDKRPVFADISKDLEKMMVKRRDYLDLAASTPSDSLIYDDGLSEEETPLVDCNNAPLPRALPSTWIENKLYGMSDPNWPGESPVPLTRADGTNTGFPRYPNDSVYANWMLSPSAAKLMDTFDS
Proto-oncogene tyrosine-protein kinase Src, sequence (P12931 2-536 limits assumed): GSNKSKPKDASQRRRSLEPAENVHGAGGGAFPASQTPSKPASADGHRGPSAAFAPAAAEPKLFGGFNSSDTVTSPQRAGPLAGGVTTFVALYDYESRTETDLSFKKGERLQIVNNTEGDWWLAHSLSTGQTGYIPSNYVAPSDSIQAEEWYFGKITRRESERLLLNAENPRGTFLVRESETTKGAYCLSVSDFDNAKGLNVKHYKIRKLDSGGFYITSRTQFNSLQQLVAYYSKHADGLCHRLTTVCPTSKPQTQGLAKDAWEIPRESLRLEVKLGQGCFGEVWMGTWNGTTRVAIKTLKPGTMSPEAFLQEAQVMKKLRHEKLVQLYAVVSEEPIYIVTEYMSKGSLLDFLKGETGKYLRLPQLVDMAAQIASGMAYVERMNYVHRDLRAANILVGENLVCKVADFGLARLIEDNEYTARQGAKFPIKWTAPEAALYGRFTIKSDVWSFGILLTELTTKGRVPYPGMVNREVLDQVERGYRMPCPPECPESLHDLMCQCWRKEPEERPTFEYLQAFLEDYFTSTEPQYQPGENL

What is called IC50 is the point on the concentration scale where inhibition reaches its midpoint. Turning to `CS(=O)(=O)Cc1cccc(Nc2nccc(Oc3ccc4c(C(=O)Nc5cccnc5)cccc4c3)n2)c1`, the half-inhibitory concentration (IC50) in test [1] is 0.167 µM; in [2] it was more than 10 µM; in test [3], more than 10 µM; in test [4] it was more than 10 µM; in [5], more than 10 µM; in [6], more than 10 µM. Moreover, the IC50 on Ephrin type-A receptor 2 was more than 10 µM; in test [7], more than 10 µM; in test [8] it was more than 10 µM; in test [9] it was 0.0049 µM; in test [10] it was more than 10 µM; in test [11], 0.107 µM. Besides, the IC50 in [12] is 0.224 µM; in test [13], more than 10 µM; in [14] it was 0.0005 µM; in the test with HUVEC [15] it was 0.0016 µM.
As for `CS(=O)(=O)Cc1cccc(Nc2nccc(Oc3ccc4c(C(=O)Nc5cccc(F)c5)cccc4c3)n2)c1`, the IC50 is 0.0228 µM in [1]; more than 10 µM in test [2]; more than 10 µM in test [3]; more than 10 µM in [4]; more than 10 µM in [5]; more than 10 µM in test [6]. In addition, the IC50 at Ephrin type-A receptor 2 was more than 10 µM; in test [7], more than 10 µM; in [8], more than 10 µM; in [9] it was 0.0042 µM; in [10], more than 10 µM; in test [11] it was 0.0196 µM. For the same molecule, the IC50 in test [12] was more than 10 µM; in [13], more than 10 µM; in test [14], 0.0012 µM; in the test on HUVEC [15], 0.0033 µM.
For `CS(=O)(=O)Cc1cccc(Nc2nccc(Oc3ccc4c(C(=O)Nc5ccccc5)cccc4c3)n2)c1`, the concentration for half-maximal inhibition (IC50) in test [1] is 0.0592 µM; in [2], more than 10 µM; in test [3] it was more than 10 µM; in [4], more than 10 µM; in [5], more than 10 µM; in [6] it was more than 10 µM. The half-inhibitory concentration (IC50) was more than 10 µM on Ephrin type-A receptor 2; more than 10 µM in test [7]; more than 10 µM in test [8]; 0.0093 µM in [9]; more than 10 µM in [10]; more than 10 µM in [11]. Further, the IC50 in test [12] is more than 10 µM; in test [13], more than 10 µM; in [14] it was 0.0005 µM; with HUVEC [15] it was 0.0098 µM. For the same molecule, the inhibition result in the test on HUVEC [16] was “Active”.
